Laboratory results taken from patent US9399626B2, “2-thiopyrimidinones” (Pfizer Inc., priority 2011, dated 2016).
Structures can show the parent of a compound that is named as a salt.

The compounds below were run against T1, MPO (purified from human polynuclear leukocytes) (Homo sapiens, UniProt P05164) (assay: MPO Amplex Red Activity Assay). Details: Table 1, 2 μM H2O2, pH 7.4.
T1 construct: purified from human polynuclear leukocytes; purchased Calbiochem/EMD Biosciences; host or cells: human polynuclear leukocytes (natural source)
Type: biochemical
Method in brief: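 Human leukocyte MPO […] oxidises 30 μM Amplex Red with 2 μM H2O2 in 50 mM NaPi pH 7.4, 150 mM NaCl, 1 mM DTPA, 2% DMSO. Resorufin fluorescence (ex 530/em 580 nm) read every 20 s, minus catalase background. kobs from the first 600 s, corrected for auto-inactivation, fit versus [I] for kinact/KI.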

T1 sequence (P05164 279-745 limits assumed): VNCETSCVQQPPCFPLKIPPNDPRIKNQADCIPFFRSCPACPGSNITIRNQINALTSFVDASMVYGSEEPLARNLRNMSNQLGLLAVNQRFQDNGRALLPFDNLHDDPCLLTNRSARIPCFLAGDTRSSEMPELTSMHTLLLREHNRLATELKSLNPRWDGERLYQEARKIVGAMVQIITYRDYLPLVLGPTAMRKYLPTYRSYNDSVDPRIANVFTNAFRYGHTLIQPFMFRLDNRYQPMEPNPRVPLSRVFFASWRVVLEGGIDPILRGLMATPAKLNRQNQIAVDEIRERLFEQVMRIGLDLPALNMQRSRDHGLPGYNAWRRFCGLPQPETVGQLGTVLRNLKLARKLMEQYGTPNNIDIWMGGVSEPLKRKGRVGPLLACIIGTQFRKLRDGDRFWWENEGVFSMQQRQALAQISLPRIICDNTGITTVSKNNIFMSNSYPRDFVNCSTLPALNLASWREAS
T1 sequence (P05164 165-273 limits assumed): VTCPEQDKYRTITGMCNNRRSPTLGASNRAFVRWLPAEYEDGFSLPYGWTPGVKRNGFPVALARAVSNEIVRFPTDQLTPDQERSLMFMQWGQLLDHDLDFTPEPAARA

Compound	MPO kinact/Ki
COCCn1c(-c2ccccc2CCO)cc(=O)[nH]c1=S [Example 46, 6-[2-(2-hydroxyethyl)phenyl]-1-(2-methoxyethyl)-2-thioxo-2,3-dihydropyrimidin-4(1H)-one]	1110 1/s per M
COc1cc(OC)c(-c2cc(=O)[nH]c(=S)n2CCCN)cc1C [Example 105, 1-(3-aminopropyl)-6-(2,4-dimethoxy-5-methylphenyl)-2-thioxo-2,3-dihydropyrimidin-4(1H)-one hydrochloride]	27300 1/s per M
COc1ccc(-c2cc(=O)[nH]c(=S)n2CCOCC(=O)O)c(OC)c1 [Example 246, {2-[6-(2,4-dimethoxyphenyl)-4-oxo-2-thioxo-3,4-dihydropyrimidin-1(2H)-yl]ethoxy}acetic acid]	246 1/s per M
NCCCn1c(-c2ccccc2-n2nccn2)cc(=O)[nH]c1=S [Example 98, 1-(3-aminopropyl)-2-thioxo-6-[2-(2H-1,2,3-triazol-2-yl)phenyl]-2,3-dihydropyrimidin-4(1H)-one hydrochloride]	1870 1/s per M
COCCn1c(-c2ncccc2OC)cc(=O)[nH]c1=S [Example 20, 1-(2-methoxyethyl)-6-(3-methoxypyridin-2-yl)-2-thioxo-2,3-dihydropyrimidin-4(1H)-one]	1330 1/s per M
COCCn1c(-c2ccc(F)cc2OC)cc(=O)[nH]c1=S [Example 318, 6-(4-fluoro-2-methoxyphenyl)-1-(2-methoxyethyl)-2-thioxo-2,3-dihydropyrimidin-4(1H)-one]	5240 1/s per M
COc1ccc(-c2cc(=O)[nH]c(=S)n2C[C@H]2CCCO2)c(OC)c1 [Example 214, 6-(2,4-dimethoxyphenyl)-1-[(2R)-tetrahydrofuran-2-ylmethyl]-2-thioxo-2,3-dihydropyrimidin-4(1H)-one]	10700 1/s per M
COc1ccc(-c2cc(=O)[nH]c(=S)n2CCN=C(N)N)c(OC)c1 [Example 7, 2-(2-(6-(2,4-dimethoxyphenyl)-4-oxo-2-thioxo-3,4-dihydropyrimidin-1(2H)-yl)ethyl)guanidine]	10900 1/s per M
COc1ccc(Cl)cc1-c1cc(=O)[nH]c(=S)n1CCCN [Example 92, 1-(3-aminopropyl)-6-(5-chloro-2-methoxyphenyl)-2-thioxo-2,3-dihydropyrimidin-4(1H)-one hydrochloride]	22100 1/s per M
COc1ccc(-c2cc(=O)[nH]c(=S)n2CC(C)(C)O)c(OC)c1 [Example 194, 6-(2,4-dimethoxyphenyl)-1-(2-hydroxy-2-methylpropyl)-2-thioxo-2,3-dihydropyrimidin-4(1H)-one]	2560 1/s per M
NCCCn1c(-c2cccc3[nH]ccc23)cc(=O)[nH]c1=S [Example 30, 1-(3-aminopropyl)-6-(1H-indol-4-yl)-2-thioxo-2,3-dihydropyrimidin-4(1H)-one trifluoroacetate]	5870 1/s per M
COc1ccc(-c2cc(=O)[nH]c(=S)n2CC(N)=O)c2ccccc12 [Example 205, 2-[6-(4-methoxy-1-naphthyl)-4-oxo-2-thioxo-3,4-dihydropyrimidin-1(2H)-yl]acetamide]	4900 1/s per M
COc1ccc(-c2cc(=O)[nH]c(=S)n2CC2CCCN2)c(OC)c1 (centres unmarked) [Example 211, 6-(2,4-dimethoxyphenyl)-1-(pyrrolidin-2-ylmethyl)-2-thioxo-2,3-dihydropyrimidin-4(1H)-one hydrochloride]	6090 1/s per M
COc1ccc(-c2cc(=O)[nH]c(=S)n2C[C@H](O)CO)c(OC)c1 [Example 203, 1-[(2S)-2,3-dihydroxypropyl]-6-(2,4-dimethoxyphenyl)-2-thioxo-2,3-dihydropyrimidin-4(1H)-one]	3450 1/s per M
NCCn1c(-c2ccccc2-n2nccn2)cc(=O)[nH]c1=S [Example 144, 1-(2-aminoethyl)-2-thioxo-6-[2-(2H-1,2,3-triazol-2-yl)phenyl]-2,3-dihydropyrimidin-4(1H)-one hydrochloride]	6010 1/s per M
COCCn1c(-c2cc(C)cnc2OC)cc(=O)[nH]c1=S [Example 51, 1-(2-methoxyethyl)-6-(2-methoxy-5-methylpyridin-3-yl)-2-thioxo-2,3-dihydropyrimidin-4(1H)-one]	6180 1/s per M
COc1cc(OC)c(-c2cc(=O)[nH]c(=S)n2CCN)cc1Cl [Example 111, 1-(2-aminoethyl)-6-(5-chloro-2,4-dimethoxyphenyl)-2-thioxo-2,3-dihydropyrimidin-4(1H)-one hydrochloride]	10300 1/s per M
COc1ccc(-c2cc(=O)[nH]c(=S)n2CC2CCCN2C(=O)CN)c(OC)c1 (centres unmarked) [Example 262, 6-(2,4-dimethoxyphenyl)-1-[(1-glycylpyrrolidin-2-yl)methyl]-2-thioxo-2,3-dihydropyrimidin-4(1H)-one hydrochloride]	1730 1/s per M
COc1cc(OC)c(-c2cc(=O)[nH]c(=S)n2CCN)cc1F [Example 90, 1-(2-aminoethyl)-6-(5-fluoro-2,4-dimethoxyphenyl)-2-thioxo-2,3-dihydropyrimidin-4(1H)-one hydrochloride]	11600 1/s per M
COc1ccc(-c2cc(=O)[nH]c(=S)n2CCNC(=O)[C@H](C)N)c(OC)c1 [Example 256, N-{2-[6-(2,4-dimethoxyphenyl)-4-oxo-2-thioxo-3,4-dihydropyrimidin-1(2H)-yl]ethyl}-L-alaninamide trifluoroacetate]	6520 1/s per M
COCCn1c(-c2cc3ccccc3n2C)cc(=O)[nH]c1=S [Example 66, 1-(2-methoxyethyl)-6-(1-methyl-1H-indol-2-yl)-2-thioxo-2,3-dihydropyrimidin-4(1H)-one]	1580 1/s per M
COCCn1c(-c2ccc(OC(C)C)cc2)cc(=O)[nH]c1=S [Example 327, 6-(4-isopropoxyphenyl)-1-(2-methoxyethyl)-2-thioxo-2,3-dihydropyrimidin-4(1H)-one]	1880 1/s per M
NC(=O)Cn1c(-c2ccc3c(c2)CCO3)cc(=O)[nH]c1=S [Example 37, 2-[6-(2,3-dihydro-1-benzofuran-5-yl)-4-oxo-2-thioxo-3,4-dihydropyrimidin-1(2H)-yl]acetamide]	6460 1/s per M

Same assay, conditions: Table 1A, 2 μM H2O2, pH 7.4

Compound	MPO kinact/Ki
COc1ccc(-c2cc(=O)[nH]c(=S)n2CC(=O)N[C@H]2C[C@@H](N)C2)c(OC)c1 [Example 430, N-(cis-3-aminocyclobutyl)-2-[6-(2,4-dimethoxyphenyl)-4-oxo-2-thioxo-3,4-dihydropyrimidin-1(2H)-yl]acetamide]	9440 1/s per M
COc1ccc(-c2cc(=O)[nH]c(=S)n2CC(=O)NCCNCC2CC2)c(OC)c1 [Example 445, N-{2-[(cyclopropylmethyl)amino]ethyl}-2-[6-(2,4-dimethoxyphenyl)-4-oxo-2-thioxo-3,4-dihydropyrimidin-1(2H)-yl]acetamide]	7350 1/s per M
NCCn1c(-c2cc(Cl)ccc2OCCO)cc(=O)[nH]c1=S [Example 427, 1-(2-aminoethyl)-6-[5-chloro-2-(2-hydroxyethoxy)phenyl]-2-thioxo-2,3-dihydropyrimidin-4(1H)-one]	5360 1/s per M
COc1ccc(-c2cc(=O)[nH]c(=S)n2CCNCCO)c(OC)c1 [Example 383, 6-(2,4-dimethoxyphenyl)-1-{2-[(2-hydroxyethyl)amino]ethyl}-2-thioxo-2,3-dihydropyrimidin-4(1H)-one]	5230 1/s per M
O=c1cc(-c2cc(F)ccc2OCCO)n(CCO)c(=S)[nH]1 [Example 411, 6-[5-fluoro-2-(2-hydroxyethoxy)phenyl]-1-(2-hydroxyethyl)-2-thioxo-2,3-dihydropyrimidin-4(1H)-one]	15000 1/s per M
COc1ccc(-c2cc(=O)[nH]c(=S)n2CC(=O)N[C@@H](C)CN)c(OC)c1 [Example 394, N-[(2S)-1-aminopropan-2-yl]-2-[6-(2,4-dimethoxyphenyl)-4-oxo-2-thioxo-3,4-dihydropyrimidin-1(2H)-yl]acetamide]	4020 1/s per M
NC(=O)Cn1c(-c2cccc3c2OCC3)cc(=O)[nH]c1=S [Example 364, 2-[6-(2,3-dihydro-1-benzofuran-7-yl)-4-oxo-2-thioxo-3,4-dihydropyrimidin-1(2H)-yl]acetamide]	6580 1/s per M
CNCCN(C)C(=O)Cn1c(-c2ccc(OC)cc2OC)cc(=O)[nH]c1=S [Example 400, 2-[6-(2,4-dimethoxyphenyl)-4-oxo-2-thioxo-3,4-dihydropyrimidin-1(2H)-yl]-N-methyl-N-[2-(methylamino)ethyl]acetamide]	2650 1/s per M
COc1ccc(Cl)cc1-c1cc(=O)[nH]c(=S)n1C[C@H](C)N [Example 361, 1-[(2S)-2-aminopropyl]-6-(5-chloro-2-methoxyphenyl)-2-thioxo-2,3-dihydropyrimidin-4(1H)-one]	2060 1/s per M
COc1ccc(-c2cc(=O)[nH]c(=S)n2CC(=O)N[C@H](C)CN)c(OC)c1 [Example 401, N-[(2R)-1-aminopropan-2-yl]-2-[6-(2,4-dimethoxyphenyl)-4-oxo-2-thioxo-3,4-dihydropyrimidin-1(2H)-yl]acetamide]	4060 1/s per M
COc1ccc(-c2cc(=O)[nH]c(=S)n2CCC(=O)NCCN)c(OC)c1 [Example 444, N-(2-aminoethyl)-3-[6-(2,4-dimethoxyphenyl)-4-oxo-2-thioxo-3,4-dihydropyrimidin-1(2H)-yl]propanamide]	17400 1/s per M
COc1cc(OCC(N)=O)ccc1-c1cc(=O)[nH]c(=S)n1CCN [Example 423, 2-{4-[3-(2-aminoethyl)-6-oxo-2-thioxo-1,2,3,6-tetrahydropyrimidin-4-yl]-3-methoxyphenoxy}acetamide]	3290 1/s per M
